Tests used:
[1] = tested on: melanoma cell line A375; experiment: THP-1-mediated phagocytic activity against A375 (Example 2); type: cell-based, human; settings: cells cultured 2 days with drug at 50 nM, then anti-CAPRIN-1 humanized antibody #1 5 μg/mL, FIG. 1
Protocol: (§1) Specifically, in each combination test group (a trametinib combination test group, a fluorouracil combination test group and an irinotecan combination test group), the indicated drug used in combination was applied to human cancer cells, and then the cancer cells were cocultured with human monocytic cells (THP-1) in the presence of the anti-CAPRIN-1 antibody, and the antibody-mediated phagocytic activity against the cancer cells by THP-1 was evaluated. The human-derived cancer cells used were melanoma cell line A375 (used only in the trametinib combination test group), colon cancer cell line HCT116, prostate cancer cell line DU145 (used only in the trametinib combination test group), and lung cancer cell line A549 (used only in the trametinib combination test group). […]
(§2) Each cancer cell line after the culture was dissociated with TrypLE Express (Thermo), and the cancer cells were stained by the addition of calcein-AM at a final concentration of 0.02 μg/mL and incubation at 37° C. for 30 minutes. […] Further, dead cells were stained with propidium iodide (PI) (final concentration: 0.1 μg/mL), followed by the measurement of fluorescence from the cells by flow cytometry. […] Thus, the phagocytic activity in this evaluation system was calculated as the ratio (%) of APC-positive/calcein-AM-positive cells to the whole calcein-AM-positive population.

[2] = tested on: colon cancer cell line HCT116; experiment: THP-1-mediated phagocytic activity against HCT116 (Example 2); type: cell-based, human; settings: cells cultured 2 days with drug at 50 nM, then anti-CAPRIN-1 humanized antibody #1 5 μg/mL, FIG. 1, 2
Protocol: as §1, with “group). On a 6-well plate, the human-derived cancer cells were cultured for 2 days in the presence of trametinib for the trametinib combination test group, and cultured for 2 days in the presence of the each drug used in combination for the fluorouracil combination test group and the irinotecan combination test group. The concentration of the drug used in combination was set to a concentration that decreased the proliferation rate of the cancer cells by about half at the completion of culture.” for “group).”
as §2

[3] = tested on: prostate cancer cell line DU145; experiment: THP-1-mediated phagocytic activity against DU145 (Example 2); type: cell-based, human; settings: cells cultured 2 days with drug at 250 nM, then anti-CAPRIN-1 humanized antibody #1 5 μg/mL, FIG. 1
Protocol: as §1, §2

[4] = tested on: lung cancer cell line A549; experiment: THP-1-mediated phagocytic activity against A549 (Example 2); type: cell-based, human; settings: cells cultured 2 days with drug at 250 nM, then anti-CAPRIN-1 humanized antibody #1 5 μg/mL, FIG. 1
Protocol: as §1, §2

[5] = trametinib in itself (therefore also used as DMSO solvate); cited from earlier work

CC(=O)Nc1cccc(-n2c(=O)n(C3CC3)c(=O)c3c(Nc4ccc(I)cc4F)n(C)c(=O)c(C)c32)c1 [trametinib, N-[3-[3-cyclopropyl-5-(2-fluoro-4-iodoanilino)-6,8-dimethyl-2,4,7-trioxopyrido[4,3-d]pyrimidin-1-yl]phenyl]acetamide]
phagocytic activity against cancer cells [1]: 49% | phagocytic activity against cancer cells [2]: 45% | phagocytic activity against cancer cells [3]: 9% | phagocytic activity against cancer cells [4]: 7% | solubility [5]: poorly soluble

Source: patent US20250281607A1, “MEDICAMENT FOR TREATMENT AND/OR PREVENTION OF CANCER” (TORAY INDUSTRIES, INC., priority 2021, published 2025)
